Measurements published in ChEMBL document CHEMBL1145270 (Bioorg Med Chem Lett, 2005).

Tests used:
[1] = biological target: T1, Alpha-2C adrenergic receptor (Homo sapiens, UniProt P18825); assay: In vitro binding affinity measured by displacement of [3H]rauwolscine from alpha-2c adrenergic receptor expressed in CHO cells in presence of phentolamine; type: cell-based
T1 sequence (P18825 whole entry): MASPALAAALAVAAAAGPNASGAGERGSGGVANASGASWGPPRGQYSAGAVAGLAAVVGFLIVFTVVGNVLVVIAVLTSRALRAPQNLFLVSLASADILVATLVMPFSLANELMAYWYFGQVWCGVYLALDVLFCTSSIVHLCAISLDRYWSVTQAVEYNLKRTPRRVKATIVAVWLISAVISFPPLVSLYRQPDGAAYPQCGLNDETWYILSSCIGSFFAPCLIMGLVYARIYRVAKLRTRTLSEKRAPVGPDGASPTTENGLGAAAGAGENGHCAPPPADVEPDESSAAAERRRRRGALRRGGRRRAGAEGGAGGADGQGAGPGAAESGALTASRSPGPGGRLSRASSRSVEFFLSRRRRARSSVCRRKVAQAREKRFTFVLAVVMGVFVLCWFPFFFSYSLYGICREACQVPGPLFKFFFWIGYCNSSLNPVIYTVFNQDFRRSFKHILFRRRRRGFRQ

[2] = biological target: T2, Alpha-2A adrenergic receptor (Homo sapiens, UniProt P08913); assay: In vitro binding affinity towards alpha-2a adrenergic receptor
T2 sequence (P08913 whole entry): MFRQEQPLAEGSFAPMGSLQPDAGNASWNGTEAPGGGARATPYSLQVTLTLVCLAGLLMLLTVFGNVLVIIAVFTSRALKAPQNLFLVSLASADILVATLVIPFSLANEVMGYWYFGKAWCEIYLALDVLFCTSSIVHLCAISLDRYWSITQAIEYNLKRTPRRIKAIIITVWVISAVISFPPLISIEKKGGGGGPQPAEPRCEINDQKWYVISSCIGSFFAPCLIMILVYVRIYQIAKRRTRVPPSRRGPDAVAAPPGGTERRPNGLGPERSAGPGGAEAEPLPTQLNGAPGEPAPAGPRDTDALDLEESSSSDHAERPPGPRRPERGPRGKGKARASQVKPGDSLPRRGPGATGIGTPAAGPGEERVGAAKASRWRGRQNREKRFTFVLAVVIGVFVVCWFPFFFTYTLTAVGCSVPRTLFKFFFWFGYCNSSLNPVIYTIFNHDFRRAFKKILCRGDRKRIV

[3] = biological target: T3, Alpha-2B adrenergic receptor (Homo sapiens, UniProt P18089); assay: In vitro binding affinity towards alpha-2b adrenergic receptor
T3 sequence (P18089 whole entry): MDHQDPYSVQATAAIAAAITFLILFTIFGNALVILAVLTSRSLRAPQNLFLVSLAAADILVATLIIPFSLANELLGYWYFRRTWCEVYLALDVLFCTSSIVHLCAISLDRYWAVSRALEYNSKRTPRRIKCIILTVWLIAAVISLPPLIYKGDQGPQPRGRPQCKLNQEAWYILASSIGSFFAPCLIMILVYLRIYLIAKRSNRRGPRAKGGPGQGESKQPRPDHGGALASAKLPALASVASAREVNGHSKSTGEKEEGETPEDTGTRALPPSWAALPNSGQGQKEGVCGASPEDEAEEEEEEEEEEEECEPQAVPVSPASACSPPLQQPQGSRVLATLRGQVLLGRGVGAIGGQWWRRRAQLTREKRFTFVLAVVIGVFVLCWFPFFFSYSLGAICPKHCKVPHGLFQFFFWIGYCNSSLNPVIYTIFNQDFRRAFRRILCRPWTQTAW

## O=C(O)[C@@H]1C2C[C@H]3c4[nH]c5ccccc5c4CCN3C[C@@H]2CC[C@@H]1O (stereo partly specified)
[1]
  Ki: 19 nM

## CC(C)(C)OC(=O)NCCCNC(=O)[C@@H]1C2C[C@H]3c4[nH]c5ccccc5c4CCN3C[C@@H]2CC[C@@H]1O (stereo partly specified)
[1]
  Ki: 2.8 nM

## COC(=O)CNC(=O)CNC(=O)[C@@H]1C2C[C@H]3c4[nH]c5ccccc5c4CCN3C[C@@H]2CC[C@@H]1O (stereo partly specified)
[1]
  Ki: 5.2 nM

## O=C(NCCCNC(=O)[C@@H]1C2C[C@H]3c4[nH]c5ccccc5c4CCN3C[C@@H]2CC[C@@H]1O)[C@H]1[C@@H]2C[C@@H]3c4[nH]c5ccccc5c4CCN3C[C@H]2CC[C@H]1O (stereo partly specified)
[1]
  Ki: 8.5 nM

## O=C(O)CCCNC(=O)[C@@H]1C2C[C@H]3c4[nH]c5ccccc5c4CCN3C[C@@H]2CC[C@@H]1O (stereo partly specified)
[1]
  Ki: 3 nM

## O=C(CCCNC(=O)[C@@H]1C2C[C@H]3c4[nH]c5ccccc5c4CCN3C[C@@H]2CC[C@@H]1O)OCc1ccccc1 (stereo partly specified)
[1]
  Ki: 0.65 nM
[2]
  Ki: 29 nM
[3]
  Ki: 1300 nM

## COC(=O)CNC(=O)[C@@H]1C2C[C@H]3c4[nH]c5ccccc5c4CCN3C[C@@H]2CC[C@@H]1O (stereo partly specified)
[1]
  Ki: 8 nM

## NCCCNC(=O)[C@@H]1C2C[C@H]3c4[nH]c5ccccc5c4CCN3C[C@@H]2CC[C@@H]1O (stereo partly specified)
[1]
  Ki: 32 nM

## O=C(NCCCNC(=O)[C@@H]1C2C[C@H]3c4[nH]c5ccccc5c4CCN3C[C@@H]2CC[C@@H]1O)OCc1ccccc1 (stereo partly specified)
[1]
  Ki: 1.1 nM
